Results: patent US11555036B2, “FGFR4 inhibitor, preparation method therefor and pharmaceutical use thereof” (Abbisko Therapeutics Co., Ltd., priority 2016, dated 2023)

What was measured:
FGFR4 = FGFR4 (Homo sapiens, UniProt P22455); assay: FGFR4 Caliper Assay (in vitro biochemical kinase analysis of FGFR4); settings: read-out: Enzymatic activity FGFR4 IC50
In short: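 Kinase reaction at 30° C for 40 min in 50 mM HEPES pH 7.5, 16 mM MgCl2, 1 mM DTT, 0.6% DMSO, stopped with EDTA. Phosphorylated and unphosphorylated fluorescent peptides separated by Caliper microfluidic mobility shift. IC50 by non-linear regression of percent inhibition.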

[1] = tested on: Huh7 hepatocellular carcinoma cells; assay: FGFR4 cell proliferation experiment, Cell Titer Glo (CTG); assay type: cell-based; settings: HuH-7 cells, 3 days; for IC50: concentration leading to absolute half growth inhibition; for EC50: concentration leading to half maximal growth inhibition
In short: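 Cells treated with 5-fold serial dilutions starting at 10 μM for 3 days at 37° C, 5% CO2. Proliferation/survival quantified as cellular ATP by CellTiter-Glo luminescence.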

Sequence of FGFR4 (P22455 22-802): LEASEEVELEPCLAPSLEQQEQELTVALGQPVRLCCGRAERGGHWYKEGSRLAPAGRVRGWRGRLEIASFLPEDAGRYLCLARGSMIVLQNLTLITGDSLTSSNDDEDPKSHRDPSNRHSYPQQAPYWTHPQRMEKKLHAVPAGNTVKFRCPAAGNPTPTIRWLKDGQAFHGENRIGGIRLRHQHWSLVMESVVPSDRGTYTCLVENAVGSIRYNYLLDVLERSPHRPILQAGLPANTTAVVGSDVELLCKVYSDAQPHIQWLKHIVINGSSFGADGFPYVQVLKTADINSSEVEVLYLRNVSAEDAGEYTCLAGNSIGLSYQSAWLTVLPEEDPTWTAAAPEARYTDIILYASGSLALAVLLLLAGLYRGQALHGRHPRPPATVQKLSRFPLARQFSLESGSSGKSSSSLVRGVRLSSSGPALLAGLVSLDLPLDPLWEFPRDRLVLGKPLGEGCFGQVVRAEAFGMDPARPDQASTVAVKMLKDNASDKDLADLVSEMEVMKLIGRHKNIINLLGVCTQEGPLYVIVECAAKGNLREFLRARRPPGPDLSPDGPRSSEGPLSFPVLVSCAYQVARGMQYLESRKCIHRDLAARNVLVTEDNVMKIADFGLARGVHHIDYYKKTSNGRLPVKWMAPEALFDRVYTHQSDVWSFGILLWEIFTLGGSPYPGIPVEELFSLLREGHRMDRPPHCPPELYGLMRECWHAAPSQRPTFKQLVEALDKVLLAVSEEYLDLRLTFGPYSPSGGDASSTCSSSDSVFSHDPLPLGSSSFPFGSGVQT

| Molecule | IC50 (FGFR4) [nM] | IC50 ([1]; Homo sapiens, Huh-7, 72 h) [nM] | EC50 ([1]; Homo sapiens, Huh-7, 72 h) [nM] | IC50 [1] [nM] | EC50 [1] [nM] |
| --- | --- | --- | --- | --- | --- |
| C=CC(=O)N[C@H]1COC[C@H]1Nc1ncc2cc(-c3c(F)c(OC)cc(OC)c3F)nc(N3CC(F)(F)C3)c2n1 [Example 768, N-((3R,4S)-4-((6-(2,6-difluoro-3,5-dimethoxyphenyl)-8-(3,3-difluoro-azetidin-1-yl)pyrido[3,4-d]pyrimi-din-2-yl)amino)tetrahydro-furan-3-yl)acrylamide] | 4 | 12.5 | 9.9 | – | – |
| C=CC(=O)N[C@H]1COC[C@H]1Nc1ncc2cc(-c3c(F)c(OC)cc(OC)c3F)nc(N3CC4CC(C3)O4)c2n1 [Example 769, N-((3R,4S)-4-((8-(6-oxa-3-azabicyclo[3.1.1]heptan-3-yl)-6-(2,6-difluoro-3,5-dimethoxy-phenyl)pyrido[3,4-d]pyrimidin-2-yl)amino)tetrahydrofuran-3-yl)acrylamide] | 3.7 | 10 | 8.4 | – | – |
| C=CC(=O)N[C@H]1COC[C@H]1Nc1ncc2cc(-c3cccc(OC)c3F)nc(NC)c2n1 [Example 770, N-((3R,4S)-4-((6-(2-fluoro-3-meth-oxyphenyl)-8-(methylamino)pyrido[3,4-d]pyrimidin-2-yl)amino)tetrahydro-furan-3-yl)acrylamide] | 2410 | > 10000 | > 10000 | – | – |
| [2H]C([2H])([2H])Nc1nc(-c2c(Cl)c(OC)cc(OC)c2Cl)cc2cnc(N[C@@H]3COC[C@@H]3NC(=O)C=C)nc12 [Example 771, N-((3R,4S)-4-((6-(2,6-dichloro-3,5-dimethoxyphenyl)-8-((methyl-d3)ami-no)pyrido[3,4-d]pyrimidin-2-yl)ami-no)tetrahydrofuran-3-yl)acrylamide] | 7.9 | 32.3 | 25.5 | – | – |
| C=CC(=O)N[C@H]1COC[C@H]1Nc1ncc2cc(-c3c(F)c(OC)cc(OC)c3F)nc(N3CCC(C)(O)C3)c2n1 (stereo partly drawn) [Example 772, N-((3R,4S)-4-((6-(2,6-difluoro-3,5-dimethoxyphenyl)-8-(3-hydroxy-3-methylpyrrolidin-1-yl)pyrido[3,4-d]py-rimidin-2-l)amino)tetrahydrofuran-3-yl)acrylamide] | 2.9 | 8.1 | 6.8 | – | – |
| C=CC(=O)N[C@H]1COC[C@H]1Nc1ncc2cc(-c3c(F)c(OC)cc(OC)c3F)nc(N3CC(C)(O)C3)c2n1 [Example 773, N-((3R,4S)-4-((6-(2,6-difluoro-3,5-dimethoxyphenyl)-8-(3-hydroxy-3-meth-ylazetidin-1-yl)pyrido[3,4-d]py-rimidin-2-yl)amino)tetrahydrofuran-3-yl)acrylamide] | 1.8 | 2.3 | 2 | – | – |
| C=CC(=O)N[C@H]1COC[C@H]1Nc1ncc2cc(-c3c(F)c(OC)cc(OC)c3F)nc(N3CCC3)c2n1 [Example 774, N-((3R,4S)-4-((8-(azetidin-1-yl)-6-(2,6-difluoro-3,5-dimethoxyphenyl)py-rido[3,4-d]pyrimidin-2-yl)amino)tetra-hydrofuran-3-yl)acrylamide] | 3.2 | 8.8 | 6.9 | – | – |
| C=CC(=O)N[C@H]1CCOC[C@H]1Nc1ncc2cc(-c3c(F)c(OC)cc(OC)c3F)nc(N3CC(OC)C3)c2n1 [Example 775, N-((3S,4S)-3-((6-(2,6-difluoro-3,5-dimethoxyphenyl)-8-(3-methoxyazetidin-1-yl)pyrido[3,4-d]pyrimidin-2-yl)amino)tetrahydro-2H-pyran-4-yl)acrylamide] | 8.9 | 27.8 | 20.8 | – | – |
| C=CC(=O)N[C@H]1COC[C@H]1Nc1ncc2cc(-c3c(Cl)c(OC)cc(OC)c3Cl)nc(N3CC4(CCOCC4)C3)c2n1 [Example 776, N-((3R,4S)-4-((6-(2,6-dichloro-3,5-dimethoxyphenyl)-8-(7-oxa-2-azaspiro [3.5]nonan-2-yl)pyrido[3,4-d]pyrimi-din-2-yl)amino)tetrahydrofuran-3-yl)acrylamide] | 4.9 | – | – | 9.4 | 7.9 |
| C=CC(=O)N[C@H]1CCOC[C@H]1Nc1ncc2cc(-c3c(F)c(OC)cc(OC)c3F)nc(NC)c2n1 [Example 786, N-((3S,4S)-3-((6-(2,6-difluoro-3,5-dimethoxyphenyl)-8-(methylamino)py-rido[3,4-d]pyrimidin-2-yl)amino)tetra-hydro-2H-pyran-4-yl)acrylamide] | 17 | 47.6 | 38.4 | – | – |
| C=CC(=O)N[C@H]1CCOC[C@H]1Nc1ncc2cc(-c3c(F)c(OC)cc(OC)c3F)nc(NCC)c2n1 [Example 787, N-((3S,4S)-3-((6-(2,6-difluoro-3,5-dimethoxyphenyl)-8-(ethylamino)pyri-do[3,4-d]pyrimidin-2-yl)amino)tetra-hydro-2H-pyran-4-yl)acrylamide] | 45 | 103 | 86 | – | – |
| C=CC(=O)N[C@H]1CCOC[C@H]1Nc1ncc2cc(-c3c(F)c(OC)cc(OC)c3F)nc(N3CCOCC3)c2n1 [Example 789, N-((3S,4)S-3-((6-(2,6-difluoro-3,5-dimethoxyphenyl)-8-morpholinopy-rido[3,4-d]pyrimidin-2-yl)amino)tetra-hydro-2H-pyran-4-yl)acrylamide] | 7.8 | 15.9 | 12.6 | – | – |
| C=CC(=O)N[C@H]1CCOC[C@H]1Nc1ncc2cc(-c3c(F)c(OC)cc(OC)c3F)nc(N3CC(C)(OC)C3)c2n1 [Example 790, N-((3S,4S)-3-((6-(2,6-difluoro-3,5-dimethoxyphenyl)-8-(3-methoxy-3-methylazetidin-1-yl)pyrido[3,4-d]py-rimidin-2-yl)amino)tetrahydro-2H-pyran-4-yl)acrylamide] | 8.5 | 13.6 | 11.4 | – | – |
| C=CC(=O)N[C@H]1CCOC[C@H]1Nc1ncc2cc(-c3c(F)c(OC)cc(OC)c3F)nc(N3CC(F)(F)C3)c2n1 [Example 791, N-((3S,4S)-3-((6-(2,6-difluoro-3,5-dimethoxyphenyl)-8-(3,3-difluoroazet-idin-1-yl)pyrido[3,4-d]pyrimidin-2-yl)amino)tetrahydro-2H-pyran-4-yl)acrylamide] | 3.7 | 8.4 | 6.4 | – | – |
| C=CC(=O)N[C@H]1CCOC[C@H]1Nc1ncc2cc(-c3c(F)c(OC)cc(OC)c3F)nc(N3CCC3)c2n1 [Example 792, N-((3S,4S)-3-((8-(azetidin-1-yl)-6-(2,6-difluoro-3,5-dimethoxyphenyl)py-rido[3,4-d]pyrimidin-2-yl)amino)tetra-hydro-2H-pyran-4-yl)acrylamide] | 3.1 | 6.2 | 4.8 | – | – |
| C=CC(=O)N[C@H]1CCOC[C@H]1Nc1ncc2cc(-c3c(F)c(OC)cc(OC)c3F)nc(N3CC(C)(O)C3)c2n1 [Example 793, N-((3S,4S)-3-((6-(2,6-difluoro-3,5-dimethoxyphenyl)-8-(3-hydroxy-3-methylazetidin-1-yl)pyrido[3,4-d]py-rimidin-2-yl)amino)tetrahydro-2H-pyran-4-yl)acrylamide] | 5.3 | 9.9 | 7.9 | – | – |
| C=CC(=O)N[C@H]1CCOC[C@H]1Nc1ncc2cc(-c3c(F)c(OC)cc(OC)c3F)nc(N3CCC(OC)C3)c2n1 (stereo partly drawn) [Example 794, N-((3S,4S)-3-((6-(2,6-difluoro-3,5-dimethoxyphenyl)-8-(3-methoxy-pyrrolidin-1-yl)pyrido[3,4-d]py-rimidin-2-yl)amino)tetrahydro-2H-pyran-4-yl)acrylamide] | 4.8 | 6.9 | 5.5 | – | – |
| C=CC(=O)N[C@H]1CCOC[C@H]1Nc1ncc2cc(-c3c(F)c(OC)cc(OC)c3F)nc(N3CCC(OC)CC3)c2n1 [Example 795, N-((3S,4S)-3-((6-(2,6-difluoro-3,5-dimethoxyphenyl)-8-(4-methoxy-piperidin-1-yl)pyrido[3,4-d]pyrimidin-2-yl)amino)tetrahydro-2H-pyran-4-yl)acrylamide] | 7.5 | 11.8 | 9.5 | – | – |
| C=CC(=O)N[C@H]1CCOC[C@H]1Nc1ncc2cc(-c3c(F)c(OC)cc(OC)c3F)nc(N3CC4CC(C3)O4)c2n1 [Example 796, N-((3S,4S)-3-((8-(6-oxa-3-aza-bicyclo[3.1.1]heptan-3-yl)-6-(2,6-difluoro-3,5-dimethoxyphenyl)py-rido[3,4-d]pyrimidin-2-yl)a-mino)tetrahydro-2H-pyran-4-yl)acrylamide] | 23 | 47.8 | 38 | – | – |
| N-((3S,4S)-3-((6-(2,6-dichloro-3,5-di- methoxyphenyl)-8-(methylamino)py- rido[3,4-d]pyrimidin-2-yl)amino)tetra- hydro-2H-pyran-4-yl)acrylamide [Example 510] | 29 | – | – | 116 | 75.2 |
